Common to all, as to assay type: in vivo
For data set [1], the system named is photo-oxidative induced retinopathy. The experiment in a line: Rat photo-oxidative induced retinopathy model: retinal morphology. Here is the method: (§1) Neuroprotective Effects in the Rat Photo-Oxidative Induced Retinopathy Model
(§2) Induction of Photochemical Lesion. Photochemical lesions were induced in dark adapted rats (24 hour) by exposure to (220 fc) blue light (half-amplitude bandpass=435-475 nm) for 6 hours. Animals were allowed to recover for 5 days in darkness prior to electrodiagnostic evaluation of retinal function. Rats were single housed in clear polycarbonate cages during this light exposure.
Assessment of Retinal Morphology. Ocular tissues were obtained from control and drug or vehicle dosed rats and fixed by immersion into a mixture of 2% paraformaldehyde and 2% glutaraldehyde. Fixed eyeballs were dehydrated in an ascending ethanol series, embedded in JB-4 plastic resin, and 1 to 1.5-micron thick sections were analyzed using a quantitative computer image analysis system attached to the microscope. Retinal layer thickness (retinal pigment epithelium, RPE; outer nuclear layer thickness, ONL; inner nuclear layer thickness, INL; and length of photoreceptor inner and outer segments, IS+OS) was measured.
(§3) Subjects and Dosing. Male Sprague Dawley rats were randomly assigned to drug and vehicle experimental groups. Control rats were housed in their home cage under normal cyclic light exposure. All rats were dosed 48, 24 and 0 hours prior to a 6-hour blue-light exposure. Dosing was as follows:
(§4) Five rats were used as controls. Retinal protection was assessed by analyzing the ERG response and measuring changes in retinal morphology.
2.) Buspirone: For DNA quantitation, six rats per treatment group were dosed IP with vehicle or buspirone (0.5 and 1 mg/kg) prior to light exposure. Retinas from seven normal rats were used as controls. To evaluate changes in retinal morphology, rats were dosed (IP) with either vehicle (N=8) or buspirone (1.0 mg/kg [N=9]). Six rats were used as controls. Retinal protection was assessed by quantitating changes in retinal DNA and measuring changes in retinal morphology.

For data set [2] the test system is unchanged. The experiment in a line: Rat photo-oxidative induced retinopathy model: electroretinogram (ERG).
Data set [3] shares this test system. Described as above. Here is the method:
as §1
The retinal protective effect of these 5-HT1A agonists were evaluated in our photo-oxidative induced retinopathy paradigm.
as §2
Electrodiagnostic Evaluation. The electroretinogram (ERG) was recorded from anesthetized rats after a 24-hour dark-adaptation period. Rats were anesthetized by IP injection with Ketamine-HCl (75 mg/Kg) and Xylazine (6 mg/Kg). Flash ERGs recorded from a platinum-iridium wire loop electrode positioned on the cornea were elicited by viewing a ganzfeld. Electrical responses to a series of light flashes increasing in intensity were digitized to analyze temporal characteristics of the waveform and response voltage-log intensity (VlogI) relationship. Changes in the ERG a-wave are associated with photoreceptor and retinal pigment epithelium damage while damage to the inner retina is reflected in changes in the ERG b-wave.
as §3, §4
3.) SR-57746A: Rats were dosed (IP) with vehicle (N=15) or SR-57746A (0.5 mg/kg [N=5] or 1 mg/kg [N=15]). Eleven rats were used as controls. The ERG was analyzed after a 5-day recovery period to assess retinal protection.
The source holds these as a separate data set.

The test system is the same in data set [4]. The experiment in a line: Rat photo-oxidative induced retinopathy model: retinal DNA quantitation. Here is the method: as §1, §2
Assessment of DNA Changes. Albino rats were euthanized by CO2 inhalation and individual retinas were frozen in separate tubes. Each retina had been sonicated in 0.8 ml (2.0 M NaCl, 50 mM NaPO4, pH 7.4, 2 mM EDTA) to yield a uniform homogenate, and stored frozen. Aliquots (0.1 ml) of each sample were diluted 10-fold with 2.0 M NaCl, 50 mM NaPO4. pH 7.4, 2 mM EDTA containing 1.1 μg/ml bisbenzimidazole (Hoechst 33258). A standard curve was constructed using calf thymus DNA from 0 to 25 μg/ml in the same buffer. Triplicate 0.2 ml aliquots of each retina sample and standard were pipetted into a 96 well plate for fluorescence measurements in the Cytofluor II. […]
2.) Buspirone: For DNA quantitation, six rats per treatment group were dosed IP with vehicle or buspirone (0.5 and 1 mg/kg) prior to light exposure. […] Retinal protection was assessed by quantitating changes in retinal DNA and measuring changes in retinal morphology.

Data set [5] relates to light-induced functional or morphological changes. The experiment in a line: Light damage paradigms (comparison compound classes).
Where [6] appears, read: 0.5 mg/kg SC 48, 24 and 0 h before 6-h blue light, 5-day recovery.
The mark [7] stands for this setting: 1.0 mg/kg SC 48, 24 and 0 h before 6-h blue light, 5-day recovery.

Each structure is given as a SMILES string. Structures can show the parent of a compound that is named as a salt.

The record followed here is US7763619B2, “Compounds with 5-HT1A activity useful for treating disorders of the outer retina” (Alcon, Inc., priority 2000, dated 2010).

For `CCCN(CCC)C1CCc2cccc(O)c2C1` (stereo not shown) [8-OH-DPAT, 8-hydroxy-2-(di-n-propylamino)tetralin], in data set [1] (0.5 mg/kg SC, 3-week recovery), the “Lesions versus vehicle dosed rats” value is reported as “not significantly different than lesions measured in vehicle dosed rats”, the ONL thickness reduction was found to be 53%, the “Photoreceptor segment length reduction” value was 60% and the RPE thickness reduction was found to be 34%. Moreover, in data set [1] (1.0 mg/kg SC, 3-week recovery), the “ONL thickness compared to vehicle dosed rats” value was determined as 2.4 fold, the “Photic lesions versus vehicle dosed rats” value is recorded as “significantly different from vehicle dosed rats”, the “Photoreceptor segment length compared to vehicle dosed rats” value is 2.9 times and the “RPE thickness compared to vehicle dosed rats” value is 1.9 times. Also, in data set [2] (setting [6]), the “Maximum a- and b-wave response amplitudes versus vehicle dosed rats” value is given as “not different than vehicle dosed rats”; the “Maximum a- and b-wave response amplitudes, % of control amplitudes” value is given as “approximately 27%”. Also, the ERG reduction entry in data set [2] (0.5 mg/kg SC, as restated with the morphometry) was “approximately 63%”. Also, in data set [2] (setting [7]), the “Maximum a- and b-wave response amplitudes versus vehicle dosed rats” value is “significantly higher than responses measured in vehicle dosed rats”; the “Maximum a-wave response amplitude, % of normal” value is on record as “approximately 53%”; the “Maximum b-wave response amplitude, % of normal” value is ~61%. Further, in data set [2] (1.0 mg/kg SC, as restated with the morphometry), the “ERG response amplitudes, % of normal” value is “greater than 50%”.

In the case of `FC(F)(F)c1cccc(C2=CCN(CCc3ccc4ccccc4c3)CC2)c1` [SR-57746A, xaliproden hydrochloride], the “Maximum a- and b-wave responses, % of controls” value in data set [3] (0.5 mg/kg IP, 5-day recovery) was 82%. Besides, in data set [3] (1 mg/kg IP, 5-day recovery), the “Maximum a- and b-wave responses, % of normal” value was 70%. The “Protection of retinal function” value in data set [3] (0.5 and 1.0 mg/kg IP, light-exposed rats) was “Significant protection of retinal function”.

On to `O=C1CC2(CCCC2)CC(=O)N1CCCCN1CCN(c2ncccn2)CC1` [buspirone], for which, in data set [1] (1 mg/kg IP, 4-week recovery), the ONL thickness turned out to be 28.3 μ and the “ONL thickness versus normal rats” value is on record as “no significant difference in ONL thickness”. For the same compound, in data set [4] (0.1 mg/kg IP), the “Retinal DNA levels versus vehicle” value was “No significant differences”. The “Retinal DNA levels versus vehicle and controls” value in data set [4] (1 mg/kg IP) is given as “significantly higher than measured in vehicle dosed rats, but not significantly different than controls”.

For `Fc1ccc(C(c2ccc(F)cc2)N2CCN(C/C=C/c3ccccc3)CC2)cc1` [flunarizine], the “Effect in preventing light-induced functional or morphological changes” value in data set [5] is given as “moderately effective”.

As for `COCCOC(=O)C1=C(C)NC(C)=C(C(=O)OC(C)C)C1c1cccc([N+](=O)[O-])c1` (stereo not shown) [nimodipine], in data set [5], the “Effect in preventing light-induced functional or morphological changes” value was “no effect”.

Turning to `Cc1c(C)c2c(c(C)c1O)CC[C@@](C)(CCC[C@H](C)CCC[C@H](C)CCCC(C)C)O2` [α-tocopherol], the “Effect in preventing light-induced functional or morphological changes” value in data set [5] is given as “ineffective”.
